Read-outs that look alike come from different tables or passages of the source.
Legend:
[1] = test system: HEK293; assay: Cytotoxicity, pan-cancer panel; format: cell-based; details: HEK293, embryonic kidney
Protocol: (§1) To test for inherent cytotoxicity (i.e. “dark toxicity”) of the phyllochlorin analogue the culture media was replaced after 24 hours with fresh media containing 10% (v/v) AlamarBlue Cell Viability Reagent (ThermoFisher) and cells incubated at 37° C. for 6 hours. Untreated cells were used as a control. Fluorescence (Ex 555 nm/Em 596 nm) was measured using a Cytation 3 Multimode Plate Reader (Biotek), and cytotoxicity assessed according to the % viable cells remaining. All measurements were made in quadruplicate.
(§2) The activity of phyllochlorin analogues against multiple cancer cell types was assessed as above, using compounds 3 and 6 as examples.

[2] = test system: B16F10; assay: Cytotoxicity, pan-cancer panel; format: cell-based; details: B16F10, melanoma
Protocol: as §1, §2

[3] = test system: SKOV3 ovarian cancer cells; assay: Phototoxicity in SKOV3 cells (652 nm laser, AlamarBlue viability); format: cell-based, Human; details: for IC90: Homo sapiens, SK-OV-3, light or radiation study
Method in brief: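 SKOV3 cells were loaded for 24 h with photosensitizer (0–10 μM in DMSO) in medium containing 10% Kollidon-12. After a media change they were irradiated at 652 nm, 50 mW/cm^2 for 5 min (15 J/cm^2), cultured a further 24 h, and viability was read by AlamarBlue in quadruplicate. Phototoxicity IC90 and dark-toxicity IC10 came from variable-slope normalized dose–response fits.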

[4] = test system: 4T1 murine breast cancer cells; assay: Tumour localisation and retention, model 1 (subcutaneous 4T1 tumours); format: in vivo, Balb/C wild type mice
Protocol: Model 1 used Balb/C wild type mice implanted subcutaneously with 10^4×4T1 murine breast cancer cells. When tumours reached a palpable size (˜3-6 mm diameter) mice received compound 6 by either oral gavage (ORAL: 2.5 mg/kg), intravenous injection (IV: 1.0 mg/kg), or intratumoral injection (IT: 1.0 mg/kg in […]). To establish compound 6 localisation, mice were imaged using an IVIS Lumina III In Vivo Imaging System (Perkin Elmer) to detect fluorescence at 660 nm when illuminated under blue (400-460 nm) light.
In a second experiment, the localisation of compound 6 at 24 hours post-administration was compared to that of Talaporfin sodium and 5-Aminolevulinic acid (5-ALA), with all compounds injected at 0.1 mg/kg IT. Fluorescence measurements were made using an IVIS Lumina III instrument (as above).

[5] = Singlet oxygen (1O2) production rate; format: physicochemical
Source text: The production of singlet oxygen (^1O2), cellular phototoxicity and light-independent cytotoxicity (“dark toxicity”) of a number of phyllochlorin analogues were compared against chlorin e4 disodium and Talaporfin sodium (mono-L-aspartyl chlorin e6), the active ingredient of Laserphyrin™.

[6] = test system: SKOV3 ovarian cancer cells; assay: Inherent cytotoxicity (dark toxicity) in SKOV3 cells (AlamarBlue viability); format: cell-based, Human; details: human, 24 h
[7] = test system: ID8 murine ovarian cancer cells; assay: Tumour localisation and retention, model 2 (intraperitoneal ID8 metastatic disease); format: in vivo, C57BL/6 wild type mice
Protocol: Model 2 used C57BL/6 wild type mice implanted intraperitoneally with 1×10^6 ID8 murine ovarian cancer cells. Following a 4 week incubation (at which point metastatic peritoneal disease with macroscopically visible tumour deposits was established), mice received compound 6 by either oral gavage (ORAL: 2.5 mg/kg), intravenous injection (IV: 1.0 mg/kg), or intraperitoneal injection (IP: 1.0 mg/kg). Quantitative imaging was performed as above; however, due to the disseminated nature of ovarian cancer, imaging was performed at autopsy, using blue light (400 nm) illumination to visualise red fluorescence associated with compound 6 in tumour deposits.

[8] = test system: 4T1 orthotopically implanted breast tumours; assay: Photodynamic therapy of established breast tumours; format: in vivo, Balb/C wild type mice
Protocol: Balb/C wild type mice with established 4T1 orthotopically implanted breast tumours were administered compound 6 by IT injection. At 24 hours post-injection (allowing compound 6 to clear from non-tumour tissues), mice were placed in clear perspex cages and illuminated (whole body) under red (660 nm) light for a period of 20 minutes. Light (660 nm) was delivered at an intensity of 100 mW/cm^2 for 20 mins continuously, to achieve a total light dose of 120 J/cm^2. […]

SMILES: C=Cc1c(C)c2cc3nc(c(C)c4cc(C)c(cc5nc(cc1[nH]2)C(C)=C5CC)[nH]4)[C@@H](CCC(=O)N(C)CCCS[C@@H]1O[C@H](CO)[C@@H](O)[C@H](O)[C@H]1O)[C@@H]3C [Compound 6, 3-((7S,8S)-18-ethyl-2,5,8,12,17-pentamethyl-13-vinyl-7H,8H-porphyrin-7-yl)-N-methyl-N-(3-(((2S,3R,4S,5S,6R)-3,4,5-trihydroxy-6-(hydroxymethyl)tetrahydro-2H-pyran-2-yl)thio)propyl)propanamide]
- Cytotoxicity IC10 [1]: 8160 nM
- Cytotoxicity IC10 [2]: 22850 nM
- IC90 ([3]; SKOV3, ovarian clear cell (Table 2), read-out: Phototoxicity IC90): 190 nM
- IC90 ([3]; SKOV3, 24 h uptake, 652 nm laser 50 mW/cm2 5 mins (15 J/cm2), viability 24 h later, read-out: Cellular Toxicity: Phototoxicity IC90): 60 nM
- IC90 ([3]; SKOV3, read-out: Phototoxicity apparent IC90): < 100 nM
- Fold increase in cellular phototoxicity compared to compound 2 ([3]; SKOV3, IC90): approximately 4 fold
- Tumour localisation at 24 hours post-administration ([4]; 0.1 mg/kg IT, primary breast tumours, IVIS fluorescence): localised strongly to tumour
- Localisation and retention in tumour tissue ([4]; IT 1.0 mg/kg, model 1): at least 48 hours
- Fluorescence retained in tumour ([4]; IV 1.0 mg/kg, model 1): at least 4 hours
- Time of peak in tumour ([4]; IV 1.0 mg/kg, model 1): 1 h
- Tumour fluorescence at 24 hours post-injection ([4]; IV 1.0 mg/kg, model 1): undetectable
- Retention in tumour tissues following administration ([4]; in all cases (models 1 and 2, all routes)): at least 24 hours
- Clearance from healthy tissues ([4]; in all cases, dependent on the tissue type): 4 to 16 h
- Time of peak levels in tumour ([4]; oral gavage 2.5 mg/kg, model 1): 4 h
- Time remaining above background in tumour ([4]; oral gavage 2.5 mg/kg, model 1): at least 24 hours
- Singlet Oxygen Production (slope) 1O2 [5]: 1700.0
- Cellular Toxicity: Dark toxicity IC10 [6]: 9490 nM
- Cytotoxicity IC10 [6]: 9490 nM
- Localisation into metastatic nodules ([7]; IP 1.0 mg/kg): rapid and highly selective localisation
- Retention in tumour following injection ([7]; IV 1.0 mg/kg): at least 24 hours
- Time of peak tumour distribution ([7]; IV 1.0 mg/kg): 4 h
- Tumour response ([8]; IT injection plus 660 nm light 120 J/cm2 at 24 hours, after 14 days): regressed to an undetectable level
- Time to endpoint (tumour size ≥100 mm2) ([8]; compound alone, no laser): ≤ 13 days
- Tumour regrowth ([8]; compound plus laser, after 3 weeks): no evidence of regrowth
- Time to regression of established tumours to an undetectable level ([8]; compound plus laser, n=2/group): ≤ 14 days

From US20230365577A1, “Photodynamic Therapy and Diagnosis” (RMW CHO Group Limited, priority 2020, published 2023)
